The term IC50 denotes the point on the concentration scale where inhibition reaches its midpoint. The low end stands for higher potency, the high end for lower potency.

This is an account of results in patent US9399646B2 (Genentech, Inc., priority 2010, dated 2016).

One assay deals with MCF-7 cells. The assay is described as follows: Breast cancer cell viability assay (CellTiter-Glo, 5 days). The format is cell-based. Particulars: 5 days' compound exposure; for IC50: Homo sapiens, MCF7, 120 h. An outline of the steps:
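Eleven-point semilog compound series, final 0.3-0.000003 μM, added to overnight-adhered MCF-7 cells (320/well; RPMI, 10% FBS, 20 mM HEPES) for 5 days. Viability read by CellTiter-Glo luminescence, background from medium without cells subtracted, expressed relative to untreated cells.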
Background: ATP-based viability assays read luminescence as a measure of living cells.

The target in a further assay is T1, ER-α in MCF-7 cells (Homo sapiens, UniProt P03372).
T1 sequence (P03372 1-595): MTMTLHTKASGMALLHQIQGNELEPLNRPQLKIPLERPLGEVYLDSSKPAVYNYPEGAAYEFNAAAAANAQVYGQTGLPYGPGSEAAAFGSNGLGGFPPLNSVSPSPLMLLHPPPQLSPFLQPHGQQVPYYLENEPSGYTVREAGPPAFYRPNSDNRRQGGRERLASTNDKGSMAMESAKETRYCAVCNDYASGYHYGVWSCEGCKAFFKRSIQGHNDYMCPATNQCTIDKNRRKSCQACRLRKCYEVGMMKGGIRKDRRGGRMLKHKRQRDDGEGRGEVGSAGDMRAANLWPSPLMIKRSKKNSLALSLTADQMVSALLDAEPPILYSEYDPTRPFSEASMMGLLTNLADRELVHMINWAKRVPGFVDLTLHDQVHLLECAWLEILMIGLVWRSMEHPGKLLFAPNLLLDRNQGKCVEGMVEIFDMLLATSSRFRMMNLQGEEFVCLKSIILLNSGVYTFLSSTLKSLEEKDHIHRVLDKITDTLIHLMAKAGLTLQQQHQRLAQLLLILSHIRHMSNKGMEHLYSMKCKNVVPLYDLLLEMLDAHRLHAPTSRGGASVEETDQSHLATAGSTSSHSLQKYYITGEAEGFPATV
Nature of the assay: Breast cancer cell ER-α in cell western assay (SP1). Set-up: endogenous in cells; host or cells: MCF-7. Particulars: 4 or 24 hr post compound addition; for Emax: MCF7, SP1 antibody, read-out: ER-α In Cell Western Assay (SP1) Max Response; for DC50: SP1 antibody, read-out: ER-α In Cell Western Assay (SP1) IC50. It counts as cell-based. An outline of the steps:
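Fixed cells were immunostained with SP1 anti-ER antibody; ER signal (800 nm) was normalized to DRAQ5 DNA signal (700 nm) and expressed as % of untreated cells.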

In the case of `CC/C(=C(/c1ccc(/C=C/C(=O)O)cc1)c1ccc2[nH]ncc2c1)c1cccc(Oc2ccncn2)c1` [Compound 364, (E)-3-(4-((E)-1-(1H-Indazol-5-yl)-2-(3-(pyrimidin-4-yloxy)phenyl)but-1-en-1-yl)phenyl)acrylic acid], in the assay with MCF-7 cells, the “MCF7 Viability Assay Max Response” value is “++ (++ = a single % value ≧ 40%)” and the IC50 was no more than 100 nM. Further, at ER-α in MCF-7 cells, the Emax is no less than 40% and the DC50 was no more than 100 nM.
With `CC/C(=C(/c1ccc(/C=C/C(=O)O)cc1)c1ccc2[nH]ncc2c1)c1cccc(Oc2cccnc2)c1` [Compound 365, (E)-3-(4-((E)-1-(1H-Indazol-5-yl)-2-(3-(pyridin-3-yloxy)phenyl)but-1-en-1-yl)phenyl)acrylic acid], in the assay on MCF-7 cells, the “MCF7 Viability Assay Max Response” value is “++ (++ = a single % value ≧ 40%)” and the IC50 is no more than 100 nM. At ER-α in MCF-7 cells, the Emax was no less than 40% and the DC50 was no more than 100 nM.
In the case of `CC/C(=C(/c1ccc(/C=C/C(=O)O)cc1)c1ccc2[nH]ncc2c1)c1cccc(Oc2ccncc2)c1` [Compound 366, (E)-3-(4-((E)-1-(1H-Indazol-5-yl)-2-(3-(pyridin-4-yloxy)phenyl)but-1-en-1-yl)phenyl)acrylic acid], in the assay on MCF-7 cells, the “MCF7 Viability Assay Max Response” value is reported as “++ (++ = a single % value ≧ 40%)” and the IC50 was no more than 100 nM. Also, at ER-α in MCF-7 cells, the Emax was no less than 40% and the DC50 is no more than 100 nM.
For `CC/C(=C(/c1ccc(/C=C/C(=O)O)cc1)c1ccc2[nH]ncc2c1)c1cccc(Oc2ccccc2F)c1` [Compound 367, (E)-3-(4-((E)-2-(3-(2-Fluorophenoxy)phenyl)-1-(1H-indazol-5-yl)but-1-en-1-yl)phenyl)acrylic acid], in the assay on MCF-7 cells, the “MCF7 Viability Assay Max Response” value is “++ (++ = a single % value ≧ 40%)” and the IC50 is no more than 100 nM. Moreover, at ER-α in MCF-7 cells, the Emax was no less than 40% and the DC50 was no more than 100 nM.
As to `CC/C(=C(/c1ccc(/C=C/C(=O)O)cc1)c1ccc2[nH]ncc2c1)c1cccc(Oc2ccccc2C)c1` [Compound 368, (E)-3-(4-((E)-1-(1H-Indazol-5-yl)-2-(3-(o-tolyloxy)phenyl)but-1-en-1-yl)phenyl)acrylic acid], in the assay on MCF-7 cells, the “MCF7 Viability Assay Max Response” value is “++ (++ = a single % value ≧ 40%)” and the concentration for half-maximal inhibition (IC50) was no more than 100 nM. For the same molecule, at ER-α in MCF-7 cells, the Emax was no less than 40% and the DC50 is no more than 100 nM.
In the case of `CC/C(=C(/c1ccc(/C=C/C(=O)O)cc1)c1ccc2[nH]ncc2c1)c1cccc(Oc2cncnc2)c1` [Compound 369, (E)-3-(4-((E)-1-(1H-Indazol-5-yl)-2-(3-(pyrimidin-5-yloxy)phenyl)but-1-en-1-yl)phenyl)acrylic acid], in the assay with MCF-7 cells, the “MCF7 Viability Assay Max Response” value is on record as “++ (++ = a single % value ≧ 40%)” and the IC50 was greater than 100 nM. Further, on ER-α in MCF-7 cells, the Emax is no less than 40% and the DC50 was no more than 100 nM.
Taken in the same sequence, the figures for `CC/C(=C(/c1ccc(/C=C/C(=O)O)cc1)c1ccc2[nH]ncc2c1)c1cccc(Oc2nccs2)c1` [Compound 370, (E)-3-(4-((E)-1-(1H-Indazol-5-yl)-2-(3-(thiazol-2-yloxy)phenyl)but-1-en-1-yl)phenyl)acrylic acid] were “++ (++ = a single % value ≧ 40%)”, no more than 100 nM, no less than 40% and no more than 100 nM.
`CC/C(=C(/c1ccc(/C=C/C(=O)O)cc1)c1ccc2[nH]ncc2c1)c1cccc(Oc2cnccn2)c1` [Compound 371, (E)-3-(4-((E)-1-(1H-Indazol-5-yl)-2-(3-(pyrazin-2-yloxy)phenyl)but-1-en-1-yl)phenyl)acrylic acid]: in the assay with MCF-7 cells, the “MCF7 Viability Assay Max Response” value is given as “++ (++ = a single % value ≧ 40%)” and the IC50 is no more than 100 nM. Further, on ER-α in MCF-7 cells, the Emax was no less than 40% and the DC50 was no more than 100 nM.
On to `CC/C(=C(/c1ccc(/C=C/C(=O)O)cc1)c1ccc2[nH]ncc2c1)c1cccc(Oc2ccncc2C(F)(F)F)c1` [Compound 372, (E)-3-(4-((E)-1-(1H-Indazol-5-yl)-2-(3-((3-(trifluoromethyl)pyridin-4-yl)oxy)phenyl)but-1-en-1-yl)phenyl)acrylic acid], for which, in the assay on MCF-7 cells, the “MCF7 Viability Assay Max Response” value is on record as “++ (++ = a single % value ≧ 40%)” and the IC50 is greater than 100 nM. Moreover, at ER-α in MCF-7 cells, the Emax is no less than 40% and the DC50 was no more than 100 nM.
Consider `CC/C(=C(/c1ccc(/C=C/C(=O)O)cc1)c1ccc2[nH]ncc2c1)c1cccc(Oc2ccc(S(C)(=O)=O)cc2)c1` [Compound 373, (E)-3-(4-((E)-1-(1H-Indazol-5-yl)-2-(3-(4-(methylsulfonyl)phenoxy)phenyl)but-1-en-1-yl)phenyl)acrylic acid], for which, in the assay on MCF-7 cells, the “MCF7 Viability Assay Max Response” value is listed as “++ (++ = a single % value ≧ 40%)” and the IC50 is no more than 100 nM. Besides, at ER-α in MCF-7 cells, the Emax is no less than 40% and the DC50 is no more than 100 nM.
Regarding `CC/C(=C(/c1ccc(/C=C/C(=O)O)cc1)c1ccc2[nH]ncc2c1)c1cccc(Oc2ccccc2S(C)(=O)=O)c1` [Compound 374, (E)-3-(4-((E)-1-(1H-Indazol-5-yl)-2-(3-(2-(methylsulfonyl)phenoxy)phenyl)but-1-en-1-yl)phenyl)acrylic acid], in the assay on MCF-7 cells, the “MCF7 Viability Assay Max Response” value was “++ (++ = a single % value ≧ 40%)” and the IC50 is greater than 100 nM. Besides, at ER-α in MCF-7 cells, the Emax was no less than 40% and the DC50 is greater than 100 nM.
Consider `CC/C(=C(/c1ccc(/C=C/C(=O)O)cc1)c1ccc2[nH]ncc2c1F)c1cccc(Oc2ccccn2)c1` [Compound 375, (E)-3-(4-((E)-1-(4-Fluoro-1H-indazol-5-yl)-2-(3-(pyridin-2-yloxy)phenyl)but-1-en-1-yl)phenyl)acrylic acid], for which, in the assay with MCF-7 cells, the “MCF7 Viability Assay Max Response” value is reported as “++ (++ = a single % value ≧ 40%)” and the IC50 is no more than 100 nM. Moreover, on ER-α in MCF-7 cells, the Emax is no less than 40% and the DC50 is no more than 100 nM.
Consider `CC/C(=C(/c1ccc(/C=C/C(=O)O)cc1)c1ccc2[nH]ncc2c1F)c1cccc(Oc2ncccn2)c1` [Compound 376, (E)-3-(4-((E)-1-(4-Fluoro-1H-indazol-5-yl)-2-(3-(pyrimidin-2-yloxy)phenyl)but-1-en-1-yl)phenyl)acrylic acid], for which, in the assay with MCF-7 cells, the “MCF7 Viability Assay Max Response” value is recorded as “++ (++ = a single % value ≧ 40%)” and the IC50 is no more than 100 nM. Moreover, at ER-α in MCF-7 cells, the Emax was no less than 40% and the DC50 is no more than 100 nM.
Regarding `CC/C(=C(/c1ccc(/C=C/C(=O)O)cc1)c1ccc2[nH]ncc2c1F)c1cccc(Oc2cnccn2)c1` [Compound 377, (E)-3-(4-((E)-1-(4-Fluoro-1H-indazol-5-yl)-2-(3-(pyrazin-2-yloxy)phenyl)but-1-en-1-yl)phenyl)acrylic acid], in the assay with MCF-7 cells, the “MCF7 Viability Assay Max Response” value is “++ (++ = a single % value ≧ 40%)” and the IC50 is no more than 100 nM. Moreover, on ER-α in MCF-7 cells, the Emax is no less than 40% and the DC50 was no more than 100 nM.
Take `CC/C(=C(/c1ccc(/C=C/C(=O)O)cc1)c1ccc2[nH]ncc2c1F)c1cccc(Oc2ccc(S(C)(=O)=O)nc2)c1` [Compound 378, (E)-3-(4-((E)-1-(4-Fluoro-1H-indazol-5-yl)-2-(3-((6-(methylsulfonyl)pyridin-3-yl)oxy)phenyl)but-1-en-1-yl)phenyl)acrylic acid]: in the assay on MCF-7 cells, the “MCF7 Viability Assay Max Response” value was “++ (++ = a single % value ≧ 40%)” and the IC50 was no more than 100 nM. Also, at ER-α in MCF-7 cells, the Emax was no less than 40% and the DC50 is no more than 100 nM.
`CC/C(=C(/c1ccc(/C=C/C(=O)O)cc1)c1ccc2[nH]ncc2c1)c1cccc(Oc2ccc(S(C)(=O)=O)cn2)c1` [Compound 379, (E)-3-(4-((E)-1-(1H-Indazol-5-yl)-2-(3-((5-(methylsulfonyl)pyridin-2-yl)oxy)phenyl)but-1-en-1-yl)phenyl)acrylic acid]: in the assay on MCF-7 cells, the “MCF7 Viability Assay Max Response” value is “++ (++ = a single % value ≧ 40%)” and the IC50 was no more than 100 nM. Also, on ER-α in MCF-7 cells, the Emax was no less than 40% and the DC50 was no more than 100 nM.
Consider `CC/C(=C(/c1ccc(/C=C/C(=O)O)cc1)c1ccc2[nH]ncc2c1)c1cccc(Oc2ccc(S(C)(=O)=O)nc2)c1` [Compound 380, (E)-3-(4-((E)-1-(1H-Indazol-5-yl)-2-(3-((6-(methylsulfonyl)pyridin-3-yl)oxy)phenyl)but-1-en-1-yl)phenyl)acrylic acid], for which, in the assay with MCF-7 cells, the “MCF7 Viability Assay Max Response” value is “++ (++ = a single % value ≧ 40%)” and the IC50 was greater than 100 nM. Besides, at ER-α in MCF-7 cells, the Emax is no less than 40% and the DC50 is no more than 100 nM.
Turning to `CC/C(=C(/c1ccc(/C=C/C(=O)O)cc1)c1ccc2[nH]ncc2c1)c1cccc(Oc2ccc(C(F)(F)F)cn2)c1` [Compound 381, (E)-3-(4-((E)-1-(1H-Indazol-5-yl)-2-(3-((5-(trifluoromethyl)pyridin-2-yl)oxy)phenyl)but-1-en-1-yl)phenyl)acrylic acid], in the assay on MCF-7 cells, the “MCF7 Viability Assay Max Response” value was “++ (++ = a single % value ≧ 40%)” and the IC50 was no more than 100 nM. On ER-α in MCF-7 cells, the Emax is no less than 40% and the DC50 was no more than 100 nM.
